Measurements as given in patent US10280197B2, “Discovery of the first selective C5A receptor 2 (C5L2/C5AR2) ligands” (The Regents of the University of California, priority 2015, dated 2019).
pKi: −log10 of the molar value.

Experiments:
C5a1 [1] = molecular target: T1, C5a1 (Homo sapiens, UniProt P21730); conditions: up to a concentration of 100 μM, reference 27; cited from earlier work
T1 sequence (P21730 1-350): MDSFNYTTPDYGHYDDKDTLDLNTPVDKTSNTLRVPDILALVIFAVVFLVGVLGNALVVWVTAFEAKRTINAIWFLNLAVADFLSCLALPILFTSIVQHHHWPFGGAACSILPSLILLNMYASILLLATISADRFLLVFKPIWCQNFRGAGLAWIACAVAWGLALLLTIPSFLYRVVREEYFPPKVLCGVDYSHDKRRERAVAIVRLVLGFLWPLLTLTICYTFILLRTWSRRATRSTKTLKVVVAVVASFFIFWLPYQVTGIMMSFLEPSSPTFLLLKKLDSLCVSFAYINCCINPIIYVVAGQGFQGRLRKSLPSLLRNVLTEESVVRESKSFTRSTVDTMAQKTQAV

C5a1 [2] = molecular target: T1, C5a1; test: BRET β-arrestin 2 recruitment by C5a1 in HEK293 cells; format: cell-based; set-up: expressed in transfected cells; host or cells: HEK293 (transient); conditions: P32 or P59 100 μM
Method: Assays were performed as a ligand-induced BRET experiment similar to previously described^17, 31, 49. In brief, HEK293 cells were transiently transfected with either C5a1-Rluc8 and β-arrestin 2-Venus or C5a2-Venus and β-arrestin 2-Rluc8 or C5a1-Rluc8 and C5a2-Venus in a 100-mm dish. 24 h after transfection cells were collected and transferred to a 96-well white microplate (Corning, N.Y., USA) in phenol-red free DMEM containing 5% FBS and 25 mM HEPES (Life Technologies). Cells were allowed to settle for 24 h and then were incubated with 30 μM Enduren (Promega, Madison, Wis., USA) for 2 h at 37° C. and 5% CO2 to ensure that the substrate had reached equilibrium. Following incubation BRET baseline measurements were taken for 15 min then ligands were added to plate and BRET measurements were taken for a further 1 h at 37° C. using a POLARstar optima microplate reader (BMG Labtech, Ortenberg, Germany). Filtered light emissions were sequentially measured for 1 s in each of the following windows 460-490 nm and 520-550 nm, both before and following ligand addition. The ligand-induced BRET ratio was calculated by subtracting the ratio of 520-550 nm emission over the 460-490 nm emission for a vehicle-treated sample from a ligand-treated sample of the same aliquot of cells in triplicate. […]

C5aR1 = molecular target: T2, C5aR1 (Homo sapiens, UniProt P21730); test: 125I-C5a binding to C5aR1 membranes; conditions: up to a maximum concentration of 500 μM
T2 sequence (P21730 1-350): T1 sequence (P21730 1-350)

[3] = molecular target: T3, human C5a2 (Flp-In CHO-C5a2 membranes) (Homo sapiens, UniProt Q9P296); test: C5a2 receptor binding, scintillation proximity assay (125I-C5a displacement); conditions: for pKi: inhibition of 125I-C5a binding to C5a2 membranes; for inhibition of 125I-C5a binding to C5a2 membranes, library screen: single concentration of 100 μM, compared to buffer control, P<0.05; for inhibition of 125I-C5a binding to C5aR2 membranes, full concentration response: up to a maximum concentration of 500 μM
T3 construct: expressed in transfected cells
Method: Membranes were prepared from Flp-In CHO-05a2 cells by a previously described method^46. Briefly, cells were washed with PBS, pH 7.4, and harvested into buffer (50 mM Tris-HCl, pH 7.4, 5 mM MgCl2, 1 mM CaCl2) before homogenizing with a Polytron homogenizer for 3 min on setting 22. Cells were centrifuged at 150×g for 5 min at 4° C. The supernatant was recovered and centrifuged at 22 000×g for 1 h at 4° C. Membrane pellets were then resuspended in 0.4 mL of ice-cold buffer (50 mM Tris-HCl, pH 7.4, 5 mM MgCl2, 1 mM CaCl2, containing 10% glycerol) with aliquots stored at −80° C. The protein concentration of the membrane preparation was determined by Bradford method^47.
C5a2 receptor binding studies were performed using a modification of a previously described scintillation proximity assay (SPA) method^48. Briefly, C5a2 SPA studies were performed in 96-well white isoplates with clear flat bottoms (Perkin Elmer, Waltham, Mass., USA). SPA beads (200 μg/well) were added, following the addition of various concentrations of competing ligands or buffer (6 pM to 500 μM) in a total volume of 80 μL of assay buffer (50 mM Tris-HCl, pH 7.4, 0.5% BSA, 5 mM MgCl2, 1 mM CaCl2). ^125I-C5a (˜20 pM) (specific activity, 2200 Ci mmol^−1) (Perkin Elmer) was added to C5a2 membrane preparations (˜2 μg/well). The final reaction volume per well comprised 20 μL of ligand/buffer, 20 μL of SPA beads, 20 μl of membrane and the assay was initiated by the addition of 20 μL of ^125I-C5a. The plate was then sealed using TopSeal-A (Perkin Elmer) sealing film and incubated with shaking for 1 h at room temperature. Radioligand binding was then assessed for 30 s/well using a 1450 Microbeta scintillation counter (Perkin Elmer).

[4] = tested on: ERK1/2 activation in HMDM; test: ERK1/2 phosphorylation assay (Alphascreen Surefire) in HMDM; format: cell-based, human; conditions: for inhibition of C5a-induced ERK1/2 activation in HMDM: 30 min pre-incubation, then C5a 5 nM for 10 min; for direct ERK1/2 activation in HMDM: peptide alone
Method: FIG. 5 is a graph showing that P32 and P59 inhibit C5a-induced ERK1/2 activation in HMDM. pERK quantified by Surefire ERK1/2 kit. Data is normalised to C5a 5 nM (100%) for each donor. Data are representative of at least three independent experiments HMDM donors performed in triplicate (n=3-5). Error bars represent SEM. **** P<0.0001 by one-way ANOVA followed by Dunnett's post hoc test.
ERK1/2 phosphorylation assays were performed using the Alphascreen Surefire ERK1/2 kit (Perkin Elmer) as per manufacturers' instructions. Briefly, HMDM were seeded at 50 000 cells/well in 96-well tissue culture plates (Nunc, Waltham, Mass., USA) and serum starved overnight. Ligands were prepared in serum-free media. P32 and P59 were pre-incubated with cells for 30 min at 37° C. and 5% CO2, prior to the addition of C5a (5 nM) for 10 min at 37° C. and 5% CO2. Media was then removed and cells lysed with lysis buffer for 10 min on a shaker, 4 μL of lysate was transferred to a white 384-well proxiplate plate (Perkin Elmer) and incubated in the presence of 7 μL of reaction mix. The plate was sealed with TopSeal-A, incubated for 2 h at 37° C. and measured on an M1000Pro plate reader (Tecan, Mannedorf, Switzerland).

T3 sequence (Q9P296 whole entry): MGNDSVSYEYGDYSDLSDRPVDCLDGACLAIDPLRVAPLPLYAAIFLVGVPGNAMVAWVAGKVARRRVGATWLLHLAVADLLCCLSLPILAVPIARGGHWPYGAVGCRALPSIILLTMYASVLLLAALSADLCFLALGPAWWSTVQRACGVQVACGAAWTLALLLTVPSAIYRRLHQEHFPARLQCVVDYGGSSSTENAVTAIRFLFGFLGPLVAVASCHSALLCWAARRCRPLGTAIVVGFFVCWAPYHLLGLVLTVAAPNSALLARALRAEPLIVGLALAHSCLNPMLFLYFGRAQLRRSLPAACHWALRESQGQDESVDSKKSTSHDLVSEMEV

Row | Substance | activity (agonist or antagonist) at C5a1 (C5a1 [1]) | β-arrestin 2 recruitment via C5a1 (C5a1 [2]) | inhibition of 125I-C5a binding to C5aR1 membranes, full concentration response (C5aR1) | pKi [3] | affinity for C5aR2 over C5aR1 ([3]; ratio of C5aR1 and C5aR2 affinities) [fold] | inhibition of 125I-C5a binding to C5a2 membranes, library screen [3] | inhibition of 125I-C5a binding to C5aR2 membranes, full concentration response [3] | inhibition of C5a-induced ERK1/2 activation in HMDM [4] | direct ERK1/2 activation in HMDM [4]
1 | Ac-LIRLWR-OH [Peptide P59, Ac-LIRLWR-OH] | no activity | Neither, P32 or P59 could recruit β-arrestin 2 via C5a1 | dose-dependently inhibited | 4.32 | ~10 | significant inhibition | dose-dependently inhibited | significantly inhibit | Neither P32 or P59 could induce ERK1/2 activation alone
2 | Ac-RHYPYWR-OH [Peptide P32, Ac-RHYPYWR-OH] | no activity | Neither, P32 or P59 could recruit β-arrestin 2 via C5a1 | dose-dependently inhibited | 3.65 |  | significant inhibition | dose-dependently inhibited | significantly inhibit | Neither P32 or P59 could induce ERK1/2 activation alone
